Assay [1] deals with T1, medaka TMT1A opsin (C-terminally truncated) (Oryzias latipes, UniProt R9R6D2).
T1 construct: gene tmtops1a; C-terminal 63 residues deleted; C-terminal rho1D4 tag (ETSQVAPA) kept; HEK293T, pMT4; purified in dodecyl maltoside, also membranes; cDNA cloned from medaka brain
T1 sequence (R9R6D2 1-342): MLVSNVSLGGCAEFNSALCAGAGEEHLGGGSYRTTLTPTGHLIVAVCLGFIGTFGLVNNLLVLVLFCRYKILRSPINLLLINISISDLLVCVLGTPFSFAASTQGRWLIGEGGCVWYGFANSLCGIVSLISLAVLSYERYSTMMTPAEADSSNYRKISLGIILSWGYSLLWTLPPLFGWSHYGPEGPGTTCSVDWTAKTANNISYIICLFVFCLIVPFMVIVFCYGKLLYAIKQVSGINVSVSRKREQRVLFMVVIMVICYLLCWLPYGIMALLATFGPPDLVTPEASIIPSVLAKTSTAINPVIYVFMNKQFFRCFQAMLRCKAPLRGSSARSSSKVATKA
As to the kind of experiment: UV-visible spectroscopy; HPLC of chromophore. The format is binding. Conditions: covalent (Schiff base); formed in situ by orange light (>540 nm) from the all-trans state; 0 °C.

Assay [2] concerns the target T2, medaka TMT2 opsin (Oryzias latipes, UniProt R9R6C6).
T2 construct: gene tmtops2; full length; C-terminal rho1D4 tag (ETSQVAPA) kept; HEK293T, pMT4; partially purified in dodecyl maltoside, also membranes; cDNA cloned from medaka brain
T2 sequence (R9R6C6 1-355): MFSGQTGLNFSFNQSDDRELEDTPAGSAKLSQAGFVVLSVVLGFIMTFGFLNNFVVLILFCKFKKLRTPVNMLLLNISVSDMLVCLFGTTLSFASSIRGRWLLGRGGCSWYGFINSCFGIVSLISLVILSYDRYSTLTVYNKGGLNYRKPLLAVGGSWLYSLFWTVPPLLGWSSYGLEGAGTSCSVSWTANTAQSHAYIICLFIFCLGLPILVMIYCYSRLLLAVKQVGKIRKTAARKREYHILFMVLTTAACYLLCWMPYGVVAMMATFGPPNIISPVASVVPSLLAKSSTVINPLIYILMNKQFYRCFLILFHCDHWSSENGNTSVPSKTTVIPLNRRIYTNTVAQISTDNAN
As to the kind of experiment: UV-visible spectroscopy; HPLC of chromophore. Format: binding. The note with it: covalent (Schiff base); reconstituted pigment in the dark; 0 °C, pH 6.5, 0.02% dodecyl maltoside.

The target of the next assay is T3, full-length TMT1A opsin (Oryzias latipes, UniProt R9R6D2).
T3 construct: gene tmtops1a; full length; C-terminal rho1D4 tag (ETSQVAPA) kept; HEK293T, pMT4; purified
T3 sequence (R9R6D2 1-405): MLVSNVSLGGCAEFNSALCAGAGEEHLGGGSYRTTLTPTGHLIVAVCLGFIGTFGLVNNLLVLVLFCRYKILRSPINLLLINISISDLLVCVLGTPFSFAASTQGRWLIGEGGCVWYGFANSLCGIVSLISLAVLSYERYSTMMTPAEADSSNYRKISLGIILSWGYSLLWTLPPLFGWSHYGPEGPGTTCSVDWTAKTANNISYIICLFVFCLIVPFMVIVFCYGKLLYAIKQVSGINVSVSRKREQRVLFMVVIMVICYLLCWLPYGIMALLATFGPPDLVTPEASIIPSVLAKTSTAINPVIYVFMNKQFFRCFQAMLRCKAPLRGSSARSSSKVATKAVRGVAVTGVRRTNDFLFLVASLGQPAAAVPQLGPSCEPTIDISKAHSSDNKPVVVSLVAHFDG
As to the kind of experiment: UV-visible spectroscopy. The format is binding. Conditions: covalent (Schiff base); reconstituted pigment.

Assay [3] has as its target T4, medaka TMT1A opsin (C-terminally truncated) (Oryzias latipes, UniProt R9R6D2, T190S).
T4 construct: gene tmtops1a; C-terminal 63 residues deleted; C-terminal rho1D4 tag (ETSQVAPA) kept; HEK293T, pMT4; purified in dodecyl maltoside, also membranes; cDNA cloned from medaka brain
Put plainly: UV-visible spectroscopy before and after irradiation. Format: binding. Conditions: covalent (Schiff base); 0 °C; bovine rhodopsin numbering; truncation of mutant not stated.

In assay [4] the target is T1, medaka TMT1A opsin (C-terminally truncated). Put plainly: UV-visible spectroscopy; HPLC of chromophore; GTPγS exchange with Gi and Go. The format is biochemical. Conditions: covalent (protonated Schiff base); agonist; formed in situ by blue light (460 nm); 0 °C.
For assay [5], the target named is T2, medaka TMT2 opsin. Put plainly: UV-visible spectroscopy; acid denaturation; HPLC; GTPγS exchange with Gi and Go. The format is biochemical. The note with it: covalent (unprotonated Schiff base); agonist; formed in situ by blue light (460 nm); 0 °C.

T4 sequence (R9R6D2 entry or part of it T190S): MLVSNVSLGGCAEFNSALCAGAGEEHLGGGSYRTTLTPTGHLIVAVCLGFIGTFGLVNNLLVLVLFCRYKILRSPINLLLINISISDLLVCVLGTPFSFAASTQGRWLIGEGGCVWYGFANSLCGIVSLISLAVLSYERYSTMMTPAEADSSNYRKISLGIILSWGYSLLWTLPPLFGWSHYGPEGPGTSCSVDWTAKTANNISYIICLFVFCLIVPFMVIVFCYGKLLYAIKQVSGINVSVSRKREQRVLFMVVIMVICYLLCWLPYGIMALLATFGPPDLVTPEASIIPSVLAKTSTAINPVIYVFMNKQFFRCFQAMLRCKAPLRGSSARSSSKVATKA

Regarding `CC1=C(/C=C/C(C)=C\C=C\C(C)=C\C=O)C(C)(C)CCC1` [9-cis-retinal], the “UV-visible spectroscopy; HPLC of chromophore” value in assay [1] was “showed the formation of products having 9-cis and 7-cis forms (Fig 2E)”.

As to `CC1=C(/C=C/C(C)=C/C=C\C(C)=C\C=O)C(C)(C)CCC1` [11-cis-retinal], the “UV-visible spectroscopy; HPLC of chromophore” value on medaka TMT2 opsin [2] is reported as “partially purified pigment of TMT2 opsin after reconstitution with 11-cis-retinal”. The UV-visible spectroscopy entry on full-length TMT1A opsin is “Full-length pigment was formed after reconstitution with 11-cis-retinal”. In addition, the “UV-visible spectroscopy before and after irradiation” value in assay [3] is given as “We then constructed a single mutant (T186S) of TMT1A opsin”.

With `CC1=C(/C=C/C(C)=C/C=C/C(C)=C/C=O)C(C)(C)CCC1` [all-trans-retinal], the “UV-visible spectroscopy; HPLC of chromophore; GTPγS exchange with Gi and Go” value in assay [4] is recorded as “indicating that the all-trans product is a G protein-activating state”. The “UV-visible spectroscopy; acid denaturation; HPLC; GTPγS exchange with Gi and Go” value on medaka TMT2 opsin [5] is given as “indicating that the all-trans product was the G protein-activating state of TMT2 opsin”.

As to `CC1=C(\C=C/C(C)=C/C=C/C(C)=C/C=O)C(C)(C)CCC1` [7-cis-retinal], the “UV-visible spectroscopy; HPLC of chromophore” value in assay [1] is “showed the formation of products having 9-cis and 7-cis forms (Fig 2E)”.

Source of the values: paper PMC4619619, “Diversity of Active States in TMT Opsins” (PLoS ONE, 2015).
